Holding throughout (format): in vitro ADME
Series [1] in a line: Metabolic stability test in small intestine S9 (human). The note with it: Human small intestine S9, 2 mg protein/mL, 37° C. As to the method: (§1) Human and hamster liver S9 (final concentration: 2 mg protein/mL), and human and hamster small intestine S9 (final concentration: 2 mg protein/mL) were each suspended in 100 mM potassium phosphate buffer (pH 7.4, containing β-nicotinamide adenine dinucleotide phosphate: 1.3 mM, D-glucose-6-phosphate: 3.3 mM, magnesium chloride: 3.3 mM, and glucose-6-phosphate dehydrogenase: 0.4 U/mL). The suspensions were mixed with a solution of a sample (Example 1) in DMSO. The solutions were incubated at 37° C. for 0, 10 and 60 minutes, and an organic solvent was added thereto. The solutions were centrifuged, and the concentration of the sample (unchanged form) in the supernatant was determined by high performance liquid chromatography/mass spectrometry (LC/MS). Based on the data obtained, remaining rate (%) was calculated according to the following equation. Remaining rate(%)=amount of sample 10 or 60 minutes after incubation/amount of sample at zero time after incubation×100

Series [2] is described as follows: Metabolic stability test in liver S9 (human). To be noted: Human liver S9, 2 mg protein/mL, 37° C. As for the experimental part: as §1
A short description of series [3]: Metabolic stability test in liver S9 (hamster). The note with it: Hamster liver S9, 2 mg protein/mL, 37° C. As for the experimental part: as §1

Results on one compound are retold here after US7432392B2, “Ester derivatives and medical use thereof” (Japan Tobacco Inc., priority 2003, dated 2008).

Structures are written as SMILES.

Consider `CCOC(=O)C(COC(=O)Cc1ccc(NC(=O)c2ccccc2-c2ccc(C(F)(F)F)cc2)c(OC(C)=O)c1)(C(=O)OCC)c1ccccc1` [Example 1, 2-(2-{3-acetoxy-4-[(4′-trifluoromethyl-biphenyl-2-carbonyl)amino]phenyl}acetoxymethyl)-2-phenylmalonic acid diethyl ester], for which the results for the “Remaining rate (%) after 10 minutes” value in series [1] (10 minutes), in series [2] (10 minutes) and in series [3] (10 minutes) were 7.5%, 6.2% and 1.6%, respectively. Moreover, the “Remaining rate (%) after 60 minutes” value in series [1] (60 minutes) turned out to be 1.1%; in series [2] (60 minutes), 1.8%; in series [3] (60 minutes), 0.0%.
